Measured values: patent US20040138238A1, “Substituted aminopyrimidine compounds as neurokinin antagonists” (priority 2002, published 2004)
Read-outs that look alike come from different tables or passages of the source.

Assays:
[1] = molecular target: T1, NK2 receptors (Homo sapiens, UniProt P21452); assay: in vitro binding to NK2 receptors; design: Ki (NK2), % @ 1000: concentration or dose not given beside the values; conditions: for Ki (NK2), % @ 1000: @ 1000 (concentration unit not given)
T1 sequence (P21452 1-398): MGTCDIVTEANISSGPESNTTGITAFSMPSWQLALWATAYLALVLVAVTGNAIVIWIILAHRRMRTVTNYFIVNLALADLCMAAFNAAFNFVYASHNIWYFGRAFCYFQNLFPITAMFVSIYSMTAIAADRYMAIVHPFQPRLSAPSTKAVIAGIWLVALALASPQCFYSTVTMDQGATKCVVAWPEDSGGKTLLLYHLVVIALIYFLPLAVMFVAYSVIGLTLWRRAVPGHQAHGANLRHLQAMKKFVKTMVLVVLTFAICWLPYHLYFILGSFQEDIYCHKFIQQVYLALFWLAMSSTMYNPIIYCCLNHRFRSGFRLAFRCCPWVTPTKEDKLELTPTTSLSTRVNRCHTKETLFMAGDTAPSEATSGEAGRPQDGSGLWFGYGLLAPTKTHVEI
Description: (§1) The activity of compounds of the invention were tested in vitro for binding to NK1 and NK2 receptors.

[2] = molecular target: NK1 receptors (Homo sapiens, UniProt P25103); assay: in vitro binding to NK1 receptors
Description: as §1

NK1 receptors, sequence (P25103 whole entry): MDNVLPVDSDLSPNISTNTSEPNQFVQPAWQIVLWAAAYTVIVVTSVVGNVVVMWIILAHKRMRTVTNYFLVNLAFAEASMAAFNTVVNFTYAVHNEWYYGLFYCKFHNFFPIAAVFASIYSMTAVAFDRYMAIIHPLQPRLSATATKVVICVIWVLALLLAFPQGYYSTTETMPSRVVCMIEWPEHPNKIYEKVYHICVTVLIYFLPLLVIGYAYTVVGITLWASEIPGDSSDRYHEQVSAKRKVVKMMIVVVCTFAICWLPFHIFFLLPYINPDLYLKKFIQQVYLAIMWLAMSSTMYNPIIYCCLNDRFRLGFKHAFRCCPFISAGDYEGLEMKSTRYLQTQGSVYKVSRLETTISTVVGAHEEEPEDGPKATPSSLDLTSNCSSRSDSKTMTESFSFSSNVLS

Compound | Ki (NK2), % @ 1000 [1] [% @] | Ki [2] [nM] | Ki ([1]; unit inferred) [nM] | Ki [1] [nM]
Cl.OC(CNC1CCN(c2ncnc3scc(-c4ccccc4)c23)CC1)COc1ccc(Cl)c(Cl)c1 (centres unmarked) [[3-(3,4-Dichloro-phenoxy)-2-hydroxy-propyl]-[1-(5-phenyl-thieno[2,3-d]pyrimidin-4-yl)-piperidin-4-yl]-ammonium; chloride] | 28 | 20 | – | –
Cc1csc2ncnc(N3CCC(NCC(O)COc4ccc5c(c4)OCO5)CC3)c12 (centres unmarked) [1-(Benzo[1,3]dioxol-5-yloxy)-3-[1-(5-methyl-thieno[2,3-d]pyrimidin-4-yl)-piperidin-4-ylamino]-propan-2-ol] | – | 868 | – | –
OC(CNC1CCN(c2ncnc3scc(-c4ccccc4)c23)CC1)COc1ccc2c(c1)OCO2 (centres unmarked) [1-(Benzo[1,3]dioxol-5-yloxy)-3-[1-(5-phenyl-thieno[2,3-d]pyrimidin-4-yl)-piperidin-4-ylamino]-propan-2-ol] | – | 7.6 | > 10000 | –
COc1ccc(OCC(O)CNC2CCN(c3ncnc4scc(-c5ccccc5)c34)CC2)cc1OC (centres unmarked) [1-(3,4-Dimethoxy-phenoxy)-3-[1-(5-phenyl-thieno[2,3-d]pyrimidin-4-yl)-piperidin-4-ylamino]-propan-2-ol] | – | 126 | 6250 | –
Cl.OC(CNC1CCN(c2ncnc3scc(-c4ccccc4)c23)CC1)COc1ccc(C(F)(F)F)cc1 (centres unmarked) [[2-Hydroxy-3-(4-trifluoromethyl-phenoxy)-propyl]-[1-(5-phenyl-thieno[2,3-d]pyrimidin-4-yl)-piperidin-4-yl]-ammonium; chloride] | 14 | 53 | – | –
OC(CNC1CCN(c2ncnc3scc(-c4ccccc4)c23)CC1)COc1ccc(Cl)cc1 (centres unmarked) [[3-(4-Chloro-phenoxy)-2-hydroxy-propyl]-[1-(5-phenyl-thieno[2,3-d]pyrimidin-4-yl)-piperidin-4-yl]-ammonium; chloride] | – | 910 | > 10000 | –
OC(CNC1CCN(c2ncnc3scc(-c4ccccc4)c23)CC1)COc1ccc(F)c(F)c1 (centres unmarked) [1-(3,4-Difluoro-phenoxy)-3-[1-(5-phenyl-thieno[2,3-d]pyrimidin-4-yl)-piperidin-4-ylamino]-propan-2-ol] | 28 | 75 | – | –
COc1ccc(OCC(O)CNC2CCN(c3ncnc4scc(-c5ccccc5)c34)CC2)cc1 (centres unmarked) [1-(4-Methoxy-phenoxy)-3-[1-(5-phenyl-thieno[2,3-d]pyrimidin-4-yl)-piperidin-4-ylamino]-propan-2-ol] | – | 53 | – | 1700
OC(CNC1CCN(c2ncnc3scc(-c4ccccc4)c23)CC1)COc1cc(F)cc(F)c1 (centres unmarked) [1-(3,5-Difluoro-phenoxy)-3-[1-(5-phenyl-thieno[2,3-d]pyrimidin-4-yl)-piperidin-4-ylamino]-propan-2-ol] | 21 | 272 | – | –
COc1ccc(OCC(O)CNC2CCN(c3ncnc4scc(-c5ccccc5)c34)CC2)c(Cl)c1 (centres unmarked) [1-(2-Chloro-4-methoxy-phenoxy)-3-[1-(5-phenyl-thieno[2,3-d]pyrimidin-4-yl)-piperidin-4-ylamino]-propan-2-ol] | – | 109 | 1570 | –
OC(CNC1CCN(c2ncnc3sccc23)CC1)COc1ccc2c(c1)OCO2 (centres unmarked) [1-(Benzo[1,3]dioxol-5-yloxy)-3-(1-thieno[2,3-d]pyrimidin-4-yl-piperidin-4-ylamino)-propan-2-ol] | – | 1830 | – | –
O=C1COC(COc2ccc3c(c2)OCO3)CN1C1CCN(c2ncnc3scc(-c4ccccc4)c23)CC1 (centres unmarked) [6-(Benzo[1,3]dioxol-5-yloxymethyl)-4-[1-(5-phenyl-thieno[2,3-d]pyrimidin-4-yl)-piperidin-4-yl]-morpholin-3-one] | – | 1320 | – | –
c1ccc(-c2csc3ncnc(N4CCC(N5CCOC(COc6ccc7c(c6)OCO7)C5)CC4)c23)cc1 (centres unmarked) [4-{4-[2-(Benzo[1,3]dioxol-5-yloxymethyl)-morpholin-4-yl]-piperidin-1-yl}-5-phenyl-thieno[2,3-d]pyrimidine] | – | 1860 | – | –
OC(CNC1CCN(c2ncnc3scc(-c4ccccc4)c23)CC1)COc1ccc(F)cc1F (centres unmarked) [1-(2,4-Difluoro-phenoxy)-3-[1-(5-phenyl-thieno[2,3-d]pyrimidin-4-yl)-piperidin-4-ylamino]-propan-2-ol] | – | 286 | – | –
COc1cc(OCC(O)CNC2CCN(c3ncnc4scc(-c5ccccc5)c34)CC2)ccc1Cl (centres unmarked) [1-(4-Chloro-3-methoxy-phenoxy)-3-[1-(5-phenyl-thieno[2,3-d]pyrimidin-4-yl)-piperidin-4-ylamino]-propan-2-ol] | 47 | 126 | – | –
OC(CNC1CCN(c2ncnc3scc(-c4ccccc4)c23)CC1)COc1ccc(Cl)c(Cl)c1 (centres unmarked) [1-(3,4-Dichloro-phenoxy)-3-[1-(5-phenyl-thieno[2,3-d]pyrimidin-4-yl)-piperidin-4-ylamino]-propan-2-ol] | – | 268 | 3390 | –
Fc1ccc(OCC2CN(C3CCN(c4ncnc5scc(-c6ccccc6)c45)CC3)CCO2)cc1 (centres unmarked) [4-{4-[2-(4-Fluoro-phenoxymethyl)-morpholin-4-yl]-piperidin-1-yl}-5-phenyl-thieno[2,3-d]pyrimidine] | – | 472 | – | –
OC(CNC1CCN(c2ncnc3scc(-c4ccccc4)c23)CC1)COc1ccc(OC(F)(F)F)cc1 (centres unmarked) [1-[1-(5-Phenyl-thieno[2,3-d]pyrimidin-4-yl)-piperidin-4-ylamino]-3-(4-trifluoromethoxy-phenoxy)-propan-2-ol] | 49 | 15 | – | –
OC(CNC1CCN(c2ncnc3scc(-c4ccccc4)c23)CC1)COc1cc(C(F)(F)F)cc(C(F)(F)F)c1 (centres unmarked) [1-(3,5-Bis-trifluoromethyl-phenoxy)-3-[1-(5-phenyl-thieno[2,3-d]pyrimidin-4-yl)-piperidin-4-ylamino]-propan-2-ol] | – | 1310 | > 1000 | –
OC(CNC1CCN(c2ncnc3scc(-c4ccccc4)c23)CC1)COCc1ccccc1 (centres unmarked) [(3-Benzyloxy-2-hydroxy-propyl)-[1-(5-phenyl-thieno[2,3-d]pyrimidin-4-yl)-piperidin-4-yl]-ammonium; chloride] | – | 141 | – | 2400
OC(CNC1CCN(c2ncnc3scc(-c4ccccc4)c23)CC1)COc1ccc(F)c(Cl)c1 (centres unmarked) [1-(3-Chloro-4-fluoro-phenoxy)-3-[1-(5-phenyl-thieno[2,3-d]pyrimidin-4-yl)-piperidin-4-ylamino]-propan-2-ol] | – | 137 | – | –
